The source of these data is patent publication US7091185B2, “Periodic antimicrobial peptides” (Dow Global Technologies Inc., priority 2003, dated 2006).

Read-outs that look alike come from different tables or passages of the source. Where no end group is shown, it is not given here.

In series [1] the test system is P. aeruginosa ATCC 15442. Put plainly: HMARQ biocidal kill activity. In kind it is cell-based. Conditions: P. aeruginosa ATCC 15442 (gram−). An outline of the steps:
(§1)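 Values are biocide ppm (μg/mL) needed for 3.5 log reduction relative to untreated controls after 15 min or 24 h exposure. Organisms were added to biocide-containing sample matrix (200–300 μL, mixed by vortex), then enumerated by most-probable-number 1:10 dilution series in TSB/resazurin.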

The subject of series [2] is Staph. aureus ATCC 6538. Kind of series: HMARQ biocidal kill activity. The conditions noted are these: Staph. aureus ATCC 6538 (gram+). In kind it is cell-based. An outline of the steps: as §1
The subject of series [3] is P. aeruginosa ATCC 15442 / Staph. aureus ATCC 6538. Kind of series: HMARQ biocidal testing. The format is cell-based. The conditions noted are these: summary of Table 6; peptides too small to span the membrane. On the procedure: Biocide efficacy protocols were improved by reducing sample size, organizing the test material into an array format, implementing most probable number (MPN) quantitation and using multi-channel liquid handling equipment. We call the new method “high-throughput microanalysis and rapid quantitation” or “HMARQ.” HMARQ is directly applicable to current industrial efficacy tests such as multi-cycle preservation challenge or time course disinfection tests.
HMARQ is performed in a high throughput plate, such as 96-well microtiter plates. Typical sample volumes have been reduced down to 200 to 300 μL, but can be reduced further if desired. In these samples, no more than 10% of the total volume will be composed of the biocide and organism solution, and all non-matrix additions are normalized for all samples.
The sample matrix is first inoculated with the desired concentration of microorganisms. Inoculated sample matrix is then added to the 96-well assay block containing the biocide(s) under study. Each sample block contains biocide treated samples and untreated control samples (lacking biocide). Once the samples are prepared, the entire block of samples is mixed by vortexing until each sample is homogenous. In general, the study starts once mixing is complete, and samples are removed as required for the analysis. When Kill Time testing (rate of biocide activity) is performed, the microorganisms are added after biocide addition to the samples, allowing for rapid mixing and analysis.
Bacterial concentration (CFU/mL) is determined using the most probable number method (MPN). […] A serial 1:10 dilution will yield a bacterial concentration resolution of 1 log and the log reduction is determined by comparing the concentration of organisms in a treated sample to the concentration of organisms in untreated samples. […]
Using the HMARQ test described above, periodic peptides were generated and tested for Kill Activity. […] Units are expressed as ppm (μg/mL) needed for 3.5 log kill at 15 min or 24 hour and the results are shown below.

The subject of series [4] is Cr. Neoformans 32045. The format is cell-based. In outline:
(§2)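 Broth microdilution per NCCLS, adapted for fungi with Sabouraud Dextrose Broth; KFAK-repeat peptide multimers in two-fold dilutions from 1,000 to 1 μg/ml. Growth by OD620 after overnight incubation; IC50 by sigmoidal fit, in duplicate, repeated at least twice.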

The subject of series [5] is C. albicans 10231. In kind it is cell-based. In outline: as §2
For series [6], the system named is HeLa cell line. Kind of series: HeLa MTS cellular reduction toxicity assay. Conditions: for TX50: 24 h, MTS. In kind it is cell-based. In outline: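 TX50, the concentration giving 50% toxicity, obtained by sigmoidal fitting of relative toxicity versus peptide-free cells. Readout: MTS reduction with PMS, 1 h, A490. Peptides applied in 2-fold serial dilutions to 48 h HeLa monolayers for 24 h at 37 °C.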
For orientation: Tetrazolium dyes change colour on reduction, which living cells bring about.

Series [7] deals with Red blood cells (RBC). Kind of series: Red blood cell toxicity. The format is cell-based.
A short description of series [8]: Red blood cell toxicity. The conditions noted are these: red blood cells (RBC). In kind it is cell-based.
Series [9] has as its system P. aeruginosa ATCC 10145.
In series [10] the test system is S. aureus (methicillin resistant) ATCC 33591.
The subject of series [11] is E. coli ATCC 2592.
Series [12] concerns P. aeruginosa ATCC 15442. Put plainly: HMARQ biocidal kill activity. The format is cell-based. The conditions noted are these: P. aeruginosa ATCC 15442, 15 min, 3 log kill.
Where [13] appears, read: RBCs, concentration required for 50% toxicity, read-out: TX50.
Setting [14] is: S. aureus (methicillin resistant) 33591, gram+.
The mark [15] stands for this setting: Table 3, P aeruginosa 10145, gram−.

Take “FKA FKA (FKAFKA; Periodic Peptide) [FKA(2)]”: in series [1], the “ppm needed for 3.5 log kill at 15 min” value is recorded as above 500 ppm and the “ppm needed for 3.5 log kill at 24 hr” value was found to be 125 ppm. In [2], the “ppm needed for 3.5 log kill at 15 min” value is 16 ppm and the “ppm needed for 3.5 log kill at 24 hr” value worked out at 500 ppm. In addition, in [3], the “biocidal activity (statement)” value was “demonstrate biocidal activity”.

As for “LRLRLRLRLRLRLRLRLR [LR (9), LR LR LR LR LR LR LR LR LR]”, the IC50 (in general, the concentration that gives 50% inhibition) is 21 µg/mL in series [4]; 195 µg/mL in series [5] (10231); above 250 µg/mL in [9] (ATCC 10145); 28 µg/mL in series [10] (setting [14]); 70 µg/mL in series [11] (ATCC 2592). The MIC (usually the lowest concentration that inhibits growth of the organism) in series [4] was 62 to 125 µg/mL; in series [5] (10231), 250 to 500 µg/mL; in [9] (ATCC 10145) it was above 250 µg/mL; in series [10] (setting [14]), 125 to 250 µg/mL; in series [11] (ATCC 2592), above 125 µg/mL. In addition, the “% kill at 500 μg/ml” value in series [6] is 96.7%. The TX50 in series [6] was above 500 µg/mL. Further, in series [7] (RBCs, 250 μg/ml), the “% kill at 250 μg/ml” value is listed as 24%. Besides, in series [8] (setting [13]), the HC50 at 24 h was above 500 µg/mL. Besides, in series [12], the “ppm at 15 min, cell marked (3 log)” value is 31(3 log) ppm. Also, the “ppm needed for 3.5 log kill at 24 hr” value in series [1] is 4 ppm; in series [2] it was 8 ppm. For the same substance, the “ppm needed for 3.5 log kill at 15 min” value in series [2] amounted to 16 ppm.

LK LK (LKLK; Periodic Peptide) [LK(2)]: the “ppm needed for 3.5 log kill at 15 min” value in series [1] and in [2] was above 500 ppm throughout. The “ppm needed for 3.5 log kill at 24 hr” value in series [1] came out at 250 ppm; in series [2], 16 ppm. For the same substance, the “biocidal activity (statement)” value in series [3] is listed as “demonstrate biocidal activity”.

Take “KFFKKFFKKFFKKFFKKFFKKFFKKFFK [KFFK (7), KFFK KFFK KFFK KFFK KFFK KFFK KFFK]”: the IC50 in [4] (fungus Cr. Neoformans 32045) was found to be 55 µg/mL; in series [5] (yeast C. albicans 10231), 183 µg/mL; in series [9] (setting [15]) it was 87 µg/mL; in [10] (setting [14]), 133 µg/mL; in series [11] (E. coli 2592, gram−) it was 63 µg/mL. Also, the MIC in series [4] (fungus Cr. Neoformans 32045) is 62 to 125 µg/mL; in series [5] (yeast C. albicans 10231) it was 250 to 500 µg/mL; in series [9] (setting [15]) it was 125 µg/mL; in series [10] (setting [14]) it was above 250 µg/mL; in [11] (E. coli 2592, gram−) it was above 125 µg/mL. The “% kill at 500 μg/ml” value in [6] is −0.5%. Moreover, the TX50 in [6] amounted to 30 µg/mL. Besides, in series [7] (RBCs, 250 μg/ml), the “% kill at 250 μg/ml” value was found to be 100%. Besides, the HC50 at 24 h in series [8] (setting [13]) was determined as 12 µg/mL. Also, the “ppm needed for 3.5 log kill at 15 min” value stood at 16 ppm in series [1] and 4 ppm in series [2]. The figures for the “ppm needed for 3.5 log kill at 24 hr” value in series [1] and in series [2] were 8 ppm and 63 ppm, respectively.

Take “FKA FKA FKA FKA (FKAFKAFKAFKA; Periodic Peptide) [FKA(4)]”: in [1], the “ppm needed for 3.5 log kill at 15 min” value was above 500 ppm and the “ppm needed for 3.5 log kill at 24 hr” value is reported as 125 ppm. Besides, in series [2], the “ppm needed for 3.5 log kill at 15 min” value is listed as 4 ppm and the “ppm needed for 3.5 log kill at 24 hr” value is 250 ppm. In addition, the “biocidal activity (statement)” value in [3] is reported as “demonstrate biocidal activity”.

As to “LRLRLRLRLRLRLRLRLRLRLR [LR (11), LR LR LR LR LR LR LR LR LR LR LR]”, the IC50 was 3.3 µg/mL in [4]; above 500 µg/mL in series [5] (10231); above 250 µg/mL in [9] (ATCC 10145); 39 µg/mL in [10] (ATCC 33591); 96 µg/mL in [11] (ATCC 2592). The MIC in series [4] was 62 to 125 µg/mL; in series [5] (10231), above 500 µg/mL; in series [9] (ATCC 10145), above 250 µg/mL; in series [10] (ATCC 33591), 125 to 250 µg/mL; in series [11] (ATCC 2592), 125 to 250 µg/mL. Further, the “% kill at 500 μg/ml” value in series [6] worked out at 66.6%. Besides, the TX50 in series [6] was above 500 µg/mL. In [7], the “% kill at 250 μg/ml” value was found to be 41%. Also, in series [8] (setting [13]), the HC50 at 24 h was 450 µg/mL. Also, the “ppm needed for 3.5 log kill at 24 hr” value in series [1] and in series [2] was 8 ppm throughout. For the same substance, the “ppm needed for 3.5 log kill at 15 min” value in series [2] is listed as 16 ppm.

As to “LKKLLKKLLKKLLKKLLKKLLKKLLKKLLKKL [LKKL (8), LKKL LKKL LKKL LKKL LKKL LKKL LKKL LKKL]”, the IC50 in series [4] turned out to be 56 µg/mL; in [5] (10231) it was 179 µg/mL; in [9] (ATCC 10145), 61 µg/mL; in series [10] (ATCC 33591), 80 µg/mL; in series [11] (ATCC 2592), 37 µg/mL. The MIC was 62 to 125 µg/mL in series [4]; 250 to 500 µg/mL in series [5] (10231); 125 µg/mL in [9] (ATCC 10145); above 250 µg/mL in series [10] (ATCC 33591); 62 to 125 µg/mL in [11] (ATCC 2592). In series [6], the “% kill at 500 μg/ml” value was 0.1%. This substance registered a TX50 in series [6] of 23 µg/mL. For the same substance, the “% kill at 250 μg/ml” value in series [7] was found to be 100%. In addition, in [8] (setting [13]), the HC50 at 24 h stood at 8 µg/mL. The “ppm needed for 3.5 log kill at 15 min” value is recorded as 4 ppm in series [1] and above 500 ppm in series [2]. Moreover, the entries for the “ppm needed for 3.5 log kill at 24 hr” value in series [1] and in series [2] were 8 ppm and 125 ppm, respectively.

For the substance “H-KKFAKKFAKKFAKKFAKKFAKKFA-OH [KKFA (6), KKFA KKFA KKFA KKFA KKFA KKFA]”, the IC50 turned out to be 12 µg/mL in series [4]; 107 µg/mL in [5] (10231); 33 µg/mL in [9] (ATCC 10145); 136 µg/mL in series [10] (ATCC 33591); 7 µg/mL in [11] (ATCC 2592). Moreover, the MIC is 32 to 62 µg/mL in series [4]; 125 to 250 µg/mL in series [5] (10231); 62 µg/mL in series [9] (ATCC 10145); above 250 µg/mL in [10] (ATCC 33591); 16 to 32 µg/mL in series [11] (ATCC 2592). For the same substance, in series [6], the “% kill at 500 μg/ml” value turned out to be 76.4%. The substance further returned a TX50 in series [6] above 500 µg/mL. Moreover, the “% kill at 250 μg/ml” value in [7] was 2%. In series [8], the HC50 at 24 h is above 500 µg/mL. In addition, the “ppm needed for 3.5 log kill at 15 min” value in series [1] and in [2] was above 500 ppm throughout. The entries for the “ppm needed for 3.5 log kill at 24 hr” value in [1] and in [2] were 8 ppm and 63 ppm, respectively.
